Assay results from patent EP4351590B1, “A GLUCOSE-METHOTREXATE CONJUGATE FOR USE IN PREVENTING OR TREATING AUTOIMMUNE DISEASES” (Uniwersytet Medyczny Im. Piastów Slaskich We Wroclawiu, priority 2021, dated 2022).
Read-outs that look alike come from different tables or passages of the source.

What was measured:
[1] = cited from earlier work
[2] = tested on: unstimulated HaCaT cells; assay: MTT assay, cell viability, non-inflammatory cell model; format: cell-based; details: 10 µM, incubation 48 hours, unstimulated HaCaT (non-inflammatory human keratinocytes), mean of 3 replicates
Description: SW982 and HaCaT cells were seeded in a 96-well plate at 10 x 10^3 cells per well. The next day, cells were incubated with TNF-a at a dose of 10 ng/ml to induce inflammation. After 24h, cells were treated with MTX or Glu-MTX at 10 µM dose and incubated for 48h. After 48 hours of incubation, the medium was decanted, and 100 µl of a solution of yellow soluble 3-(4,5-dimethyl-2-thiazolyl)-2,5-diphenyl-2H-tetrazolium bromide (MTT) at a concentration of 0.5-1 mg/ml was added. After 4 hours of incubation, the MTT solution was decanted, and 50 µl/well of DMSO was added. After 3 hours, the optical density of the dissolved formazan was analyzed colorimetrically in a BioTek plate reader.
Since living cells reduce MTT to formazan, the optical density (OD) is highest in control (C) wells which accounted for 100% of cell viability. Viability in wells incubated with compound (COMP) was calculated using the formula: X = 100% x OD COMP/OD C [formula]
Figures 1 and 2 show the results of a viability assessment study (IC50) for TNF-α-stimulated SW982 and HaCaT cell lines treated with methotrexate alone or a glucose-methotrexate (Glu-MTX) derivative. […] The test was also performed on an unstimulated HaCaT cell line, which is the counterpart of non-inflammatory human keratinocytes. […] The study used: 10 µM Glu-MTX, 10 µM Methotrexate; incubation 48 hours; MTT analysis. […]

[3] = cited from earlier work; remark: listed apart in the source

In the case of `CN(Cc1cnc2nc(N)nc(N)c2n1)c1ccc(C(=O)N[C@@H](CCC(=O)O)C(=O)O)cc1` [MTX, Methotrexate], the bioavailability ([1]; at higher doses) is listed as 10-20%, the bioavailability ([1]; at low doses) is listed as “almost complete” and the plasma half-life ([1]; elimination from the circulation via the kidneys) is listed as 5 to 8 h. The “cytotoxicity (cell viability)” value [2] was “much greater cytotoxicity”.

In the case of `CN(Cc1nc2c(N)nc(N)nc2[nH]c1=O)c1ccc(C(=O)N[C@@H](CCC(=O)O)C(=O)O)cc1` [7-OH-MTX], the solubility in water [3] is given as “sparingly soluble in water”.
